Experimental data from ChEMBL document CHEMBL1926662, “Trace amine-associated receptor 1 is a stereoselective binding site for compounds in the amphetamine class” (Bioorg Med Chem, 2011).

Key:
[1] = target: T1, Trace amine-associated receptor 1 (Macaca mulatta, UniProt Q8HZ64); test: Activation of rhesus monkey TAAR1 expressed in RD-HGA16 cells co-expressing Gq protein assessed as cAMP accumulation by fluorescence plate reader; format: functional, cell-based
T1 sequence (Q8HZ64 whole entry): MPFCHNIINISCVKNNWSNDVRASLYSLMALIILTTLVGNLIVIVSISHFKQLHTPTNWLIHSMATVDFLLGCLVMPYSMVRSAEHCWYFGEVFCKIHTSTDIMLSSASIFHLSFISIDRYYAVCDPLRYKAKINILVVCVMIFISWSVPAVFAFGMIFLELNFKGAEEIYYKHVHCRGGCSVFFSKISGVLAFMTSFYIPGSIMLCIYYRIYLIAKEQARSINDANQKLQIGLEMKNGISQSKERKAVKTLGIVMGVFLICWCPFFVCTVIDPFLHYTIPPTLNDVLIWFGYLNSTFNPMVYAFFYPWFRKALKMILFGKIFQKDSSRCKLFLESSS

[2] = target: T2, Trace amine-associated receptor 1 (Homo sapiens, UniProt Q96RJ0); test: Activation of C-terminal HA epitope tagged human TAAR1 expressed in RD-HGA16 cells co-expressing Gq protein, Galpha16 by cAMP accumulation assay; format: functional, cell-based
T2 sequence (Q96RJ0 whole entry): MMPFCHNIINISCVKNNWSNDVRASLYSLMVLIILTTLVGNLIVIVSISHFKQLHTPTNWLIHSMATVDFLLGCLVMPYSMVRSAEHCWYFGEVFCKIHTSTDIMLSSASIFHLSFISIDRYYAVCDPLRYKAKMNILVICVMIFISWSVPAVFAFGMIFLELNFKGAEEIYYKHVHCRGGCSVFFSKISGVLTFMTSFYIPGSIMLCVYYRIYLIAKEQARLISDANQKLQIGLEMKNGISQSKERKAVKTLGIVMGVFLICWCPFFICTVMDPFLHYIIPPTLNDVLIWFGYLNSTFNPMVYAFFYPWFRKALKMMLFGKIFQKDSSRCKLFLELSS

[3] = target: T2, Trace amine-associated receptor 1; test: Activation of human TAAR1 expressed in Syrian hamster AV12-664 cells co-expressing GalphaS protein assessed as accumulation of cAMP after 30 mins using cAMP XS EA/CL as substrate by luminescence method in presence of RX821002 and alprenolol; format: functional, cell-based
cells = details: HEK293
Description: Activation of chimeric rat-human expressed in human HEK293 cells assessed as accumulation of [3H]cAMP after 1 hr by liquid scintillation counting

[4] = target: T3, Trace amine-associated receptor 1 (Rattus norvegicus, UniProt Q923Y9); test: Activation of rat TAAR1 expressed in HEK293 cells assessed as accumulation of [3H]cAMP after 1 hr by liquid scintillation counting; format: functional, cell-based
T3 sequence (Q923Y9 whole entry): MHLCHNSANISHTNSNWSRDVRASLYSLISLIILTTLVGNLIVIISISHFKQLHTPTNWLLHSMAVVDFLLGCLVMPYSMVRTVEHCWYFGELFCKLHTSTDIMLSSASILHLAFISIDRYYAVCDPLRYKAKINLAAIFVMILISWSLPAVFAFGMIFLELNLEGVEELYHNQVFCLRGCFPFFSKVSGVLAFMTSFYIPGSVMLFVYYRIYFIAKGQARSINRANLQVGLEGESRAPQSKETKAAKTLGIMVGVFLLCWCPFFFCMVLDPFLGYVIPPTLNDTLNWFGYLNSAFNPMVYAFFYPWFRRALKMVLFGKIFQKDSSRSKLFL

[5] = target: T4, Trace amine-associated receptor 1 (Mus musculus, UniProt Q923Y8); test: Activation of mouse TAAR1 expressed in human HEK293 cells assessed as accumulation of [3H]cAMP after 1 hr by liquid scintillation counting; format: functional, cell-based
T4 sequence (Q923Y8 whole entry): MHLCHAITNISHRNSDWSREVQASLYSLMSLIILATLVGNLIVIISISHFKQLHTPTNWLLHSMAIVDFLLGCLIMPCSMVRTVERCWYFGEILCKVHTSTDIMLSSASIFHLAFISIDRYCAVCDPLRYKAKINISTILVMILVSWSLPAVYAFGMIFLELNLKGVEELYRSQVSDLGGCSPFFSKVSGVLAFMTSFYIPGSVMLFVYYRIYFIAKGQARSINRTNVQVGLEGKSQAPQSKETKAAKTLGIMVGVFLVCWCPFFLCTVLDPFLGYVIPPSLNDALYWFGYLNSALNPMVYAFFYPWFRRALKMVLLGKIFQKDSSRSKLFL

[6] = target: T3, Trace amine-associated receptor 1; test: Activation of rat TAAR1 expressed in HEK293 cells assessed as accumulation of [3H]cAMP after 1 hr by competitive binding assay; format: functional, cell-based
[7] = target: T2, Trace amine-associated receptor 1; test: Activation of human TAAR1 expressed in human HEK293T cells assessed as cAMP accumulation after 10 mins by BRET assay; format: functional, cell-based, HEK-293T
[8] = target: T4, Trace amine-associated receptor 1; test: Activation of mouse TAAR1 expressed in human HEK293 cells assessed as accumulation of cAMP after 15 mins; format: functional, cell-based

In the case of `COc1cc(C[C@H](C)N)c(OC)cc1C`, the EC50 ([1]; read-out: EC50) is reported as 900 nM and the EC50 ([2]; rd-hga16) is reported as “Not Active”.
`NCCc1ccc(Oc2ccc(O)cc2)c(I)c1` gave an EC50 [3] of 1510 nM.
In the case of `C[C@@H](N)Cc1ccc(O)cc1`, the EC50 (cells) is reported as greater than 8.54 µM, the EC50 [4] is reported as 60 nM and the EC50 [5] is reported as 5650 nM. The EC50 ([1]; read-out: EC50) was 424 nM and the EC50 ([2]; read-out: EC50) was 3.16 µM.
Molecule `C[C@H](N)Cc1ccc2c(c1)OCO2` has an EC50 ([1]; read-out: EC50) of 1350 nM and an EC50 ([2]; read-out: EC50) of 6.57 µM.
In the case of `C[C@@H](N)Cc1ccc2c(c1)OCO2`, the EC50 ([1]; read-out: EC50) is reported as 2480 nM and the EC50 ([2]; read-out: EC50) is reported as 11.7 µM.
In the case of `COc1cccc(C[C@@H](C)N)c1`, the EC50 ([1]; rd-hga16) is reported as “Not Active” and the EC50 ([2]; read-out: EC50) is reported as 6.5 µM.
In the case of `CCc1cc(OC)c(C[C@H](C)N)cc1OC`, the EC50 ([1]; rd-hga16) is reported as “Not Active”.
With `CCc1cc(OC)c(C[C@@H](C)N)cc1OC` the EC50 ([1]; rd-hga16) was “Not Active” and the EC50 ([2]; rd-hga16) was “Not Active”.
In the case of `CN[C@H](C)Cc1ccccc1`, the EC50 (cells) is reported as 9.83 µM, the EC50 [4] is reported as 1190 nM and the EC50 [5] is reported as 2440 nM. For the same molecule, the EC50 ([1]; read-out: EC50) was 2500 nM and the EC50 ([2]; read-out: EC50) was 3.3 µM.
In the case of `CN[C@@H](C)Cc1ccc2c(c1)OCO2`, the EC50 ([1]; read-out: EC50) is reported as 16100 nM.
With `C[C@@H](N)Cc1cccc(C(F)(F)F)c1` the EC50 ([2]; rd-hga16) was “Not Active”.
With `COc1cc(C[C@@H](C)N)c(OC)cc1C` the EC50 ([1]; rd-hga16) was “Not Active” and the EC50 ([2]; rd-hga16) was “Not Active”.
With `CN[C@H](C)Cc1ccc2c(c1)OCO2` the EC50 ([1]; read-out: EC50) was 7400 nM and the EC50 ([2]; rd-hga16) was “Not Active”.
For `COc1cc(C[C@H](C)N)c(OC)cc1Br`, the EC50 ([1]; read-out: EC50) was 2140 nM and the EC50 ([2]; read-out: EC50) was 15.3 µM.
Work on `COc1cc(C[C@@H](C)N)c(OC)cc1Br` yielded an EC50 ([1]; read-out: EC50) of 13900 nM and an EC50 ([2]; read-out: EC50) of 31.9 µM.
`CC(N)Cc1ccc(O)cc1` (racemic) [HYDROXYAMPHETAMINE] showed an EC50 [6] of 50 nM.
Work on `CNC(C)Cc1ccc2c(c1)OCO2` (racemic) [MIDOMAFETAMINE] yielded an EC50 [6] of 1700 nM.
In the case of `COc1cccc(C[C@H](C)N)c1` [(S)-M-METHOXYAMPHETAMINE], the EC50 ([1]; read-out: EC50) is reported as 3300 nM and the EC50 ([2]; read-out: EC50) is reported as 1.9 µM.
With `C[C@H](N)Cc1ccc(O)cc1` [(S)-P-HYDROXYAMPHETAMINE] the EC50 (cells) was greater than 5.42 µM, the EC50 [4] was 190 nM and the EC50 [5] was 280 nM. For the same molecule, the EC50 ([1]; read-out: EC50) was 101 nM and the EC50 ([2]; read-out: EC50) was 2.96 µM.
In the case of `CN[C@@H](C)Cc1ccccc1` [METHAMPHETAMINE], the EC50 (cells) is reported as 4.44 µM, the EC50 [7] is reported as 1300 nM and the EC50 [4] is reported as 890 nM. The EC50 [8] was 70 nM, the EC50 [5] was 920 nM and the EC50 ([1]; read-out: EC50) was 5300 nM. For the same molecule, the EC50 ([2]; read-out: EC50) was 1.5 µM.
With `NCCc1ccccc1` [PHENETHYLAMINE] the EC50 [3] was 106 nM.
